The text below walks through data of article PMC7127208 (Bioorganic & Medicinal Chemistry, 2013).

SMILES strings stand for the structures.

One data set concerns Reovirus-1. Briefly: Antiviral screening, Reovirus-1 in MDCK cells. The note with it: read-out: EC50 Reovirus-1. It counts as cell-based.
The test system of another data set is Feline herpes virus. Briefly: Antiviral screening, Feline herpes virus in CRFK cells. It counts as cell-based. The note with it: read-out: EC50 Feline herpes virus.
The next data set relates to Parainfluenza 3-virus. Briefly: Antiviral screening, Parainfluenza 3-virus in MDCK cells. Conditions: read-out: EC50 Parainfluenza 3-virus. It counts as cell-based.
Data set [1] has as its system CEM, HeL, CRFK, HeLa, MDCK cells. The note with it: above mentioned cell lines.
The test system of data set [2] is FIV (feline immunodeficiency virus). The note with it: cited from earlier work.
For a further data set, the system named is FIV. Briefly: Anti-FIV activity in CrFK cells. It counts as cell-based, feline immunodeficiency virus.
The subject of the next data set is HSV-1. Briefly: Antiviral activity against HSV-1. It counts as cell-based.
A further data set relates to VV. Briefly: Antiviral activity against VV. It counts as cell-based.
The subject of another data set is HCMV. Briefly: Antiviral activity against HCMV. It counts as cell-based.
Another data set concerns HSV-2. Briefly: Antiviral activity against HSV-2. It counts as cell-based.
A further data set deals with Feline herpesvirus. Briefly: Antiviral activity against Feline herpesvirus. It counts as cell-based.

Broadly, the EC50 is the concentration at which the effect is half-maximal.

Regarding `C[C@@H](O)CNc1nc(N)c2ncn(C[C@@H](C)O)c2n1` [compound 3, (R)-1-{6-Amino-2-[(R)-2-(hydroxypropyl)amino]-9H-purin-9-yl}propan-2-ol], the EC50 in the data set with Reovirus-1, in the data set with Feline herpes virus and in the data set on Parainfluenza 3-virus was above 100 µg/mL each time. Besides, in [1], the “MCC, minimum cytotoxicity concentration required to cause a microscopically detectable alteration of normal cell morphology” value (shortened to “MCC … of normal cell morphology”) is reported as above 100 μg/mL.
In the case of `C[C@@H](O)CNc1nc(N)nc2c1ncn2C[C@@H](C)O` [compound 4, (R)-1-{2-Amino-6-[((R)-2-hydroxypropyl)amino]-9H-purin-9-yl}propan-2-ol], the EC50 in the data set with Reovirus-1, in the data set on Feline herpes virus and in the data set on Parainfluenza 3-virus was above 100 µg/mL throughout. Also, the “MCC … of normal cell morphology” value in data set [1] is listed as above 100 μg/mL.
Consider `C[C@H](Cn1cnc2c(NCP(=O)(O)O)nc(N)nc21)OCP(=O)(O)O` [compound 10, (R)-9-[2-(Phosphonomethoxy)propyl]-N^6-phosphonomethyl-2,6-diaminopurine], for which the EC50 with Reovirus-1, with Feline herpes virus and in the data set with Parainfluenza 3-virus was above 100 µg/mL in each case. In data set [1], the “MCC … of normal cell morphology” value was above 100 μg/mL.
In the case of `C[C@H](Cn1cnc2c(N)nc(N)nc21)OCP(=O)(O)O` [compound 12, (R)-9-[2-(phosphonomethoxy)propyl]-2,6-diaminopurine], the “inhibition of FIV infections in cats” value in [2] is “very potent inhibitor”.
For the compound `CCCCCCCCCCCCCCCCOCCCOP(=O)([O-])CO[C@H](C)Cn1cnc2c(N)nc(N)nc21.[Na+]` [compound 14, Hexadecyloxypropyl ester of (R)-9-[2-(phosphonomethoxy)propyl]-2,6-diaminopurine, sodium salt], the “fold more potent in inhibiting FIV replication compared to the parent molecule” value in the data set with FIV (in vitro, versus (R)-PMPDAP) is 200 fold. The “activity against HSV-1” value in the data set with HSV-1 is on record as “No activity”. Further, the “activity against VV” value with VV is “No activity”. In addition, in the data set with HCMV, the “activity against HCMV” value is recorded as “No activity”. In addition, the “activity against HSV-2” value with HSV-2 is recorded as “No activity”. The “activity against Feline herpesvirus” value in the data set on Feline herpesvirus is “No activity”.
For `CCOC(=O)[C@H](C)NP(=O)(CO[C@H](C)Cn1cnc2c(N)nc(N)nc21)N[C@@H](C)C(=O)OCC` [compound 15], the “fold less active against FIV compared to the parent molecule” value in the data set with FIV is on record as 10 fold.
